Measurements published in US8778966B2, “Quinolinone derivatives as PARP and tank inhibitors” (Janssen Pharmaceutica, NV, priority 2007, dated 2014).
Where two headings read alike, the source gives them in different places.

Assays:
HCT116 cells = experiment: Antiproliferative activity, Alamar Blue assay, HCT116 cells; type: cell-based, human; set-up: key to HCT116 antiproliferative activity pIC50: pIC50 = -log IC50 (IC50: conc. reducing growth to 50% of control); conditions: for IC50: Homo sapiens, HCT-116, HCT116 cells, read-out: HCT116 antiproliferative activity pIC50 (converted)
Method in brief: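 HCT116 cells seeded, adhered 24 h, then exposed to compound for 4 days; Alamar Blue (resazurin) added for 4 h at 37 °C, fluorescence read at 540/590 nm. Viability as % of untreated control, triplicate wells; IC50 by probit analysis, reported as pIC50.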

PC-3 cells = experiment: Antiproliferative activity, Alamar Blue assay, PC-3 cells; type: cell-based, human; conditions: for IC50: Homo sapiens, PC-3, PC3 cells, read-out: PC3 antiproliferative activity pIC50 (converted)
Method in brief: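 PC-3 cells seeded at 4.5×10^3 cells/ml, left to adhere 24 hr, then exposed to compound for 4 days. Resazurin (Alamar Blue) added for a further 24 hrs at 37° C; fluorescence read at 540/590 nm. Viability as % of untreated control, mean of 3 wells; IC50 by probit analysis, reported as pIC50.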

Compound | IC50 (HCT116 cells; Alamar Blue) [nM] | IC50 (PC-3 cells; Alamar Blue) [nM] | further results
CCc1cc2ccc(C(C)(C#N)Cc3nc4ccccc4n3C)cc2[nH]c1=O (stereo not shown) [Compound 338] | 1580 | 2000 | 
CCc1cc2ccc(C(C)(C#N)Cc3cnc(Cl)nc3Cl)cc2[nH]c1=O (stereo not shown) [Compound 306] | 2000 | 2000 | 
CCc1cc2ccc([C@](C)(C#N)[C@@H](C)c3ccccc3)cc2[nH]c1=O [Compound 199] | 10000 | 10000 | 
CCc1cc2ccc(C(C)(C#N)Cc3cnc(OC)nc3Cl)cc2[nH]c1=O (stereo not shown) [Compound 356] | 631 | 794 | 
CCc1cc2ccc(C(C)(C#N)Cc3cccc(I)n3)cc2[nH]c1=O (stereo not shown) [Compound 214] | 501 | 631 | 
CCc1cc2ccc(C(C)(C#N)Cc3nc(Cl)cc(N(C)C)n3)cc2[nH]c1=O (stereo not shown) [Compound 359] | 200 | 501 | 
CCc1cc2ccc(C(C)(C#N)Cc3cccc(CO)n3)cc2[nH]c1=O (stereo not shown) [Compound 345] | 2000 | 3980 | 
CCc1cc2ccc(C(C)(C#N)Cc3ccc(C)nc3)cc2[nH]c1=O (stereo not shown) [Compound 327] | 2000 | 7940 | 
CCc1c(C)c2ccc(C(C)(C#N)Cc3cccc(C#N)c3)cc2[nH]c1=O (stereo not shown) [Compound 181] | 2510 | 3980 | 
CCc1cc2ccc([C@](C)(C#N)Cc3cccc(N(C)C)c3)cc2[nH]c1=O (single isomer, unassigned) [Compound 259] | 10000 | 10000 | 
CCc1cc2ccc(C(C)(C#N)Cc3ccc4ccccc4n3)cc2[nH]c1=O (stereo not shown) [Compound 336] | 2510 | 2510 | 
CCc1cc2ccc(C(C)(C#N)C(C)c3ccccc3)cc2[nH]c1=O (stereo not shown) [Compound 198] | 2000 | 2000 | 
CCc1cc2ccc([C@@](C)(C#N)Cc3cccc(N(C)C)c3)cc2[nH]c1=O (single isomer, unassigned) [Compound 258] | 251 | 316 | 
CCc1cc2ccc(C(C)(C#N)Cc3ncc(C)c(OC)c3C)cc2[nH]c1=O (stereo not shown) [Compound 311] | 3160 | 7940 | 
Cc1cc2ccc([C@](C)(C#N)Cc3cccc(C#N)c3)cc2[nH]c1=O [Compound 36] |  |  | IC50 (HCT116 cells): 50.1 nM; IC50 (PC-3 cells): 200 nM
CCOC(=O)c1cccc(CC(C)(C#N)c2ccc3cc(CC)c(=O)[nH]c3c2)n1 (stereo not shown) [Compound 215] | 1580 | 6310 | 
CCc1cc2ccc(C(C)(C#N)Cc3nccc(OCCOC)n3)cc2[nH]c1=O (stereo not shown) [Compound 369] | 3980 | 6310 | 
CCc1cc2ccc(C(C)(C#N)Cc3cc(Cl)nc(Cl)c3)cc2[nH]c1=O (stereo not shown) [Compound 372] | 398 | 501 | 
CCc1cc2ccc(C(C)(C#N)Cc3cccc(C)n3)cc2[nH]c1=O (stereo not shown) [Compound 343] | 794 | 2000 | 
CCc1cc2ccc(C(C)(C#N)Cc3cccc(OC)n3)cc2[nH]c1=O (stereo not shown) [Compound 353] | 200 | 251 | 
C#Cc1cccc(C[C@@](C)(C#N)c2ccc3cc(CC)c(=O)[nH]c3c2)c1 [Compound 3] | 39.8 | 100 | 

Compound | IC50 (HCT116 cells; Alamar Blue) [nM] | IC50 (PC-3 cells; Alamar Blue) [nM] | further results
CCc1cc2ccc([C@](C)(C#N)C[C@@H]3Cc4cc(C)ccc4O3)cc2[nH]c1=O (single isomer, unassigned) [Compound 400] | 10000 | 10000 | 
CCc1cc2ccc(C(C)(C#N)Cc3cccc(N(C)C)n3)cc2[nH]c1=O (stereo not shown) [Compound 213] | 501 | 501 | 
CCc1cc2ccc(C(F)(C#N)Cc3ccccc3)cc2[nH]c1=O (stereo not shown) [Compound 187] | 3160 | 7940 | 
CCc1cc2ccc(C(C)(C#N)Cc3cccc(Cl)n3)cc2[nH]c1=O (stereo not shown) [Compound 310] | 501 | 631 | 
CCc1cc2ccc(C(C)(C#N)Cc3cccc(CN)c3)cc2[nH]c1=O (stereo not shown) [Compound 290] | 158 | 501 | 
CCc1cc2ccc(C(C#N)(CC)Cc3ccccc3)cc2[nH]c1=O (stereo not shown) [Compound 32] |  |  | IC50 (HCT116 cells): 2000 nM; IC50 (PC-3 cells): 5010 nM
COc1cc(OC)nc(CC(C)(C#N)c2ccc3cc(C)c(=O)[nH]c3c2)n1 (stereo not shown) [Compound 308] | 316 | 316 | 
CCc1cc2cc(OC)c(C(C)(C#N)Cc3ccccc3)cc2[nH]c1=O (stereo not shown) [Compound 294] | 6310 | 10000 | 
CCc1cc2ccc([C@@](C)(C#N)Cc3cccc(C#N)c3)cc2[nH]c1=O (single isomer, unassigned) [Compound 268] | 10000 | 10000 | 
CCc1cc2ccc(C(C)(C#N)Cc3cccc(C#N)n3)cc2[nH]c1=O (single isomer, unassigned) [Compound 207] |  |  | HCT116 antiproliferative activity pIC50 (HCT116 cells; HCT116 cells, Alamar Blue): 7.0; PC3 antiproliferative activity pIC50 (PC-3 cells; PC3 cells, Alamar Blue): 6.8
CCc1cc2ccc(C(C)(C#N)Cc3ccc(OC)nc3)cc2[nH]c1=O (stereo not shown) [Compound 352] | 1260 | 2510 | 
CCc1c(Cl)c2ccc(C(C)(C#N)Cc3cccc(C#N)c3)cc2[nH]c1=O (stereo not shown) [Compound 293] | 794 | 6310 | 
COc1ccccc1-c1nc(CC(C)(C#N)c2ccc3cc(C)c(=O)[nH]c3c2)no1 (stereo not shown) [Compound 33] |  |  | IC50 (HCT116 cells): 794 nM; IC50 (PC-3 cells): 2510 nM
CCc1cc2ccc(C(C)(C#N)Cc3cccc(C#C[Si](C)(C)C)n3)cc2[nH]c1=O (stereo not shown) [Compound 210] | 501 | 501 | 
C=Cc1cccc(CC(C)(C#N)c2ccc3cc(CC)c(=O)[nH]c3c2)c1 (stereo not shown) [Compound 172] | 501 | 631 | 
CCc1cc2ccc(C(C)(C#N)Cc3cccc(COC)n3)cc2[nH]c1=O (stereo not shown) [Compound 216] | 2000 | 10000 | 
CCc1cc2ccc(C(C)(C#N)Cc3cccc(CCC#N)c3)cc2[nH]c1=O (stereo not shown) [Compound 169] | 5010 | 3160 | 
CCc1cc2ccc(C(C)(C#N)Cc3cc(OC)nc(OC)n3)cc2[nH]c1=O (stereo not shown) [Compound 358] | 3160 | 2510 | 
CCc1cc2ccc(C(C)(C#N)CNCc3cccc(C#N)c3)cc2[nH]c1=O (stereo not shown) [Compound 301] | 3980 | 10000 | 
CCc1cc2ccc(C(C)(C#N)Cc3nccn3CC)cc2[nH]c1=O (stereo not shown) [Compound 337] | 5010 | 5010 | 
CCC[C@](C#N)(Cc1ccccc1)c1ccc2cc(CC)c(=O)[nH]c2c1 (single isomer, unassigned) [Compound 264] | 10000 | 10000 | 

Compound | IC50 (HCT116 cells; Alamar Blue) [nM] | IC50 (PC-3 cells; Alamar Blue) [nM] | further results
CCc1cc2ccc(C(C)(C#N)Cc3cccc(CNS(C)(=O)=O)c3)cc2[nH]c1=O (stereo not shown) [Compound 170] | 5010 | 10000 | 
C#Cc1cccc(C[C@](C)(C#N)c2ccc3cc(CC)c(=O)[nH]c3c2)c1 [Compound 2] | 10000 | 10000 | 
CCc1cc2ccc(C(C)(C#N)CC3CCc4ccccc4O3)cc2[nH]c1=O (stereo not shown) [Compound 399] | 631 | 631 | 
CCc1cc2ccc(C(C)(C#N)Cc3nc(Cl)cc(OCCOC)n3)cc2[nH]c1=O (stereo not shown) [Compound 370] | 1580 | 2510 | 
CC(C)c1cc2ccc(C(C)(C#N)Cc3ccccc3)cc2[nH]c1=O (stereo not shown) [Compound 38] |  |  | IC50 (HCT116 cells): > 10000 nM; IC50 (PC-3 cells): > 10000 nM
CCc1cc2ccc([C@](C)(C#N)[C@H](C)c3ccccc3)cc2[nH]c1=O [Compound 200] | 1580 | 1000 | 
CCc1cc2ccc([C@](C)(C#N)Cc3cccc(C#N)c3)cc2[nH]c1=O (single isomer, unassigned) [Compound 269] | 200 | 398 | 
CCc1cc2ccc(C(C)(C#N)Cc3cnc(OC)nc3OC)cc2[nH]c1=O (stereo not shown) [Compound 357] | 398 | 398 | 
Cc1cc2ccc(C(C)(C#N)Cc3cccc(Cl)c3)cc2[nH]c1=O (stereo not shown) [Compound 37] |  |  | IC50 (HCT116 cells): 316 nM; IC50 (PC-3 cells): 398 nM
CCc1cc2ccc(C(C)(C#N)Cc3cc(OCCOC)nc(C)n3)cc2[nH]c1=O (stereo not shown) [Compound 363] | 5010 | 5010 | 
CC(=O)c1cc2ccc(C(C)(C#N)Cc3ccccc3)cc2[nH]c1=O (stereo not shown) [Compound 39] |  |  | IC50 (HCT116 cells): > 10000 nM; IC50 (PC-3 cells): > 10000 nM
CCc1cc2ccc(C(C)(C#N)Cc3cccc(OCCOC)n3)cc2[nH]c1=O (stereo not shown) [Compound 219] | 5010 | 2510 | 
CCc1cc2ccc(C(C)(C#N)Cc3cccc(C#N)n3)cc2[nH]c1=O (stereo not shown) [Compound 329] | 316 | 501 | 
CCc1cc2ccc(C(C)(C#N)Cc3nccc(OC)n3)cc2[nH]c1=O (stereo not shown) [Compound 360] | 1260 | 1260 | 
CCc1cc2ccc(C(C)(C#N)Cc3cccc(/C=C/S(C)(=O)=O)c3)cc2[nH]c1=O (stereo not shown) [Compound 292] | 501 | 501 | 
CCC[C@@](C#N)(Cc1ccccc1)c1ccc2cc(CC)c(=O)[nH]c2c1 (single isomer, unassigned) [Compound 263] | 3160 | 5010 | 
CCc1cc2ccc(C(C)(C#N)CCOc3cccc(C(F)(F)F)c3)cc2[nH]c1=O (stereo not shown) [Compound 274] | 6310 | 3980 | 
CCc1cc2ccc(C(C)(C#N)Cc3cc(OC)ccn3)cc2[nH]c1=O (stereo not shown) [Compound 373] | 7940 | 10000 | 
CCc1cc2ccc(C(C)(C#N)Cc3nc(C)cc(C)n3)cc2[nH]c1=O (stereo not shown) [Compound 368] | 1580 | 1260 | 
C#Cc1cccc(CC(C)(C#N)c2ccc3cc(CC)c(=O)[nH]c3c2)n1 (stereo not shown) [Compound 211] | 316 | 501 | 
